Reference: patent publication US20240247035A1, “STAPLED ANTIMICROBIAL PEPTIDES (STAMPS) AND USES THEREOF” (Lytica Therapeutics, Inc., priority 2021, published 2024)
Values after ≈ are worked out from the molar mass of the structure shown. Bridge positions count the residues as written; N and C are the ends. Square brackets hold non-standard residues; d marks the D form. Peptide text beside a SMILES is read from it. Phe(4-tBu) = CC(C)(C)c1ccc(C[C@H](N)C(=O)O)cc1; S5 = C=CCCC[C@](C)(N)C(=O)O; Orn = NCCC[C@H](N)C(=O)O

Columns and labels:
[1] = 90 minute cytotoxicity assay (LDH release), renal toxicity; type: cell-based; conditions: human
Procedure: (§1) Cell culture: RPTEC were maintained in MEM media supplemented with growth factors. HEPG2 cell line was maintained in Eagle's Minimum Essential Medium (EMEM) supplemented with fetal bovine serum to a final concentration of 10%.
90 minute cytotoxicity assay: Cells were plated in a 96-well format, and after overnight incubation, media was replaced with fresh media. Serial dilutions of StAMPs from a 5 mg/mL water stock, or vehicle, were added to the cells in a final volume of 100 μl. After incubating at 37° C. for 90 min, 50 μl of cell culture media was transferred to a clear 96-well plate, incubated with 50 μl of lactate dehydrogenase (LDH) assay reagent for 10 min, and absorbance measured at 490 nm on a microplate reader.
(§2) Renal toxicity was measured after 90 minutes of incubation, while liver toxicity was measured after 48 hours of incubation with StAMPs. N/A=not tested.

[2] = 48 hours cytotoxicity assay (CellTiter-Glo), liver toxicity; type: cell-based; conditions: human
Procedure: as §1
48 hours cytotoxicity assay: Cells were plated in a 96-well format, and after 4 hour incubation to allow attachment, serial dilutions of StAMPs from a 5 mg/mL water stock, or vehicle, were then added to the cells in a final volume of 100 μl. After incubating at 37° C. for 48 hours, 100 μl of CellTiter-Glo® reagent was added to the cells, and the plates were incubated 10 minutes at room temperature. Luminescence was then measured on a microplate reader.
as §2

SMILES	IC50 at 90 min [1] [µg/mL]	IC50 at 48 hours [2] [µg/mL]
CC[C@H](C)[C@H](NC(=O)[C@H](CCCCN)NC(=O)[C@H](CCCCN)NC(=O)CNC(=O)[C@H](C)NC(=O)[C@]1(C)CCCC=CCCC[C@](C)(NC(=O)CN)C(=O)N[C@@H](Cc2ccccc2)C(=O)N[C@@H](CO)C(=O)N[C@@H](CCCCN)C(=O)N1)C(=O)N[C@@H](CCCCN)C(=O)N[C@@H](CC(N)=O)C(=O)N[C@@H](CC(C)C)C(=O)N[C@@]1(C)CCCC=CCCC[C@@](C)(C(=O)N[C@@H](CCCCN)C(=O)N[C@@H](CC(N)=O)C(N)=O)NC(=O)CNC(=O)[C@H](CO)NC(=O)[C@H]([C@@H](C)CC)NC1=O [compound 10] (H-G[S5]FSK[S5]AGKKIKNL[S5]ISG[S5]KN-NH2; staple 2-6, 15-19)	18 (≈ 7.86 µM)	16 (≈ 6.99 µM)
CC[C@H](C)[C@H](NC(=O)[C@H](CCCCN)NC(=O)[C@H](CCCCN)NC(=O)CNC(=O)[C@H](CCCCN)NC(=O)[C@]1(C)CCCC=CCCC[C@](C)(NC(=O)CN)C(=O)N[C@@H](CCCCN)C(=O)N[C@@H](CO)C(=O)N[C@@H](CCCCN)C(=O)N1)C(=O)N[C@@H](CCCCN)C(=O)N[C@@H](CC(N)=O)C(=O)N[C@@H](CC(C)C)C(=O)N[C@@]1(C)CCCC=CCCC[C@@](C)(C(=O)N[C@@H](CCCCN)C(=O)N[C@@H](CC(N)=O)C(N)=O)NC(=O)CNC(=O)[C@H](CO)NC(=O)[C@H]([C@@H](C)CC)NC1=O [compound 17] (H-G[S5]KSK[S5]KGKKIKNL[S5]ISG[S5]KN-NH2; staple 2-6, 15-19)	325 (≈ 140 µM)	172 (≈ 73.9 µM)
CC[C@H](C)[C@H](NC(=O)[C@H](CCCCN)NC(=O)[C@H](CCCCN)NC(=O)CNC(=O)[C@H](CCCCN)NC(=O)[C@]1(C)CCCC=CCCC[C@](C)(NC(=O)CN)C(=O)N[C@@H](Cc2ccccc2)C(=O)N[C@@H](CO)C(=O)N[C@@H](CCCCN)C(=O)N1)C(=O)N[C@@H](CCCCN)C(=O)N[C@@H](CC(N)=O)C(=O)N[C@@H](CC(C)C)C(=O)N[C@@H](CC(C)C)C(=O)N[C@@]1(C)CCCC=CCCC[C@@](C)(C(=O)N[C@@H](CCCCN)C(=O)NCC(=O)NCC(=O)N[C@@H](CCC(=O)O)C(N)=O)NC(=O)[C@H](CC(C)C)NC(=O)CNC(=O)[C@H](CO)NC1=O [compound 39] (H-G[S5]FSK[S5]KGKKIKNLL[S5]SGL[S5]KGGE-NH2; staple 2-6, 16-20)	> 200	> 200
CC[C@H](C)[C@H](NC(=O)[C@H](CCCCN)NC(=O)[C@H](CCCCN)NC(=O)[C@@H](NC(=O)[C@H](CCCCN)NC(=O)[C@]1(C)CCCC=CCCC[C@](C)(NC(=O)CN)C(=O)N[C@@H](CCCCN)C(=O)N[C@@H](CO)C(=O)N[C@@H](CCCCN)C(=O)N1)C(C)C)C(=O)N[C@@H](CCCCN)C(=O)N[C@@H](CC(N)=O)C(=O)N[C@@H](CC(C)C)C(=O)N[C@@]1(C)CCCC=CCCC[C@@](C)(C(=O)N[C@@H](CCCCN)C(=O)NCC(N)=O)NC(=O)CNC(=O)[C@H](CO)NC(=O)[C@H]([C@@H](C)CC)NC1=O [compound 7] (H-G[S5]KSK[S5]KVKKIKNL[S5]ISG[S5]KG-NH2; staple 2-6, 15-19)	191 (≈ 82.6 µM)	72 (≈ 31.1 µM)
CC[C@H](C)[C@H](NC(=O)[C@H](CCCCN)NC(=O)[C@H](CCCCN)NC(=O)CNC(=O)[C@H](CCCCN)NC(=O)[C@]1(C)CCCC=CCCC[C@](C)(NC(=O)CN)C(=O)N[C@@H](CCCCN)C(=O)N[C@@H](CO)C(=O)N[C@@H](CCCCN)C(=O)N1)C(=O)N[C@@H](CCCCN)C(=O)N[C@@H](CC(N)=O)C(=O)N[C@@H](CC(C)C)C(=O)N[C@@]1(C)CCCC=CCCC[C@@](C)(C(=O)N[C@@H](CCCCN)C(=O)N[C@@H](CC(N)=O)C(N)=O)NC(=O)[C@H](C(C)C)NC(=O)[C@H](CO)NC(=O)[C@H]([C@@H](C)CC)NC1=O [compound 21] (H-G[S5]KSK[S5]KGKKIKNL[S5]ISV[S5]KN-NH2; staple 2-6, 15-19)	54 (≈ 22.8 µM)	32 (≈ 13.5 µM)
CC[C@H](C)[C@H](NC(=O)[C@H](CCCCN)NC(=O)[C@H](CCCCN)NC(=O)CNC(=O)[C@H](CCCCN)NC(=O)[C@]1(C)CCCC=CCCC[C@](C)(NC(=O)CN)C(=O)N[C@@H](Cc2ccccc2)C(=O)N[C@@H](CO)C(=O)N[C@@H](CCCCN)C(=O)N1)C(=O)N[C@@H](CCCCN)C(=O)N[C@@H](CC(N)=O)C(=O)N[C@@H](CC(C)C)C(=O)N[C@@]1(C)CCCC=CCCC[C@@](C)(C(=O)N[C@@H](CCCCN)C(=O)NCC(N)=O)NC(=O)CNC(=O)[C@H](CO)NC(=O)[C@H]([C@@H](C)CC)NC1=O [compound 1] (H-G[S5]FSK[S5]KGKKIKNL[S5]ISG[S5]KG-NH2; staple 2-6, 15-19)	48 (≈ 21 µM)	47 (≈ 20.5 µM)
CC[C@H](C)[C@H](NC(=O)[C@H](CCCCN)NC(=O)[C@H](CCCCN)NC(=O)CNC(=O)[C@H](CCCCN)NC(=O)[C@]1(C)CCCC=CCCC[C@](C)(NC(=O)[C@@H](N)CCCCN)C(=O)N[C@@H](Cc2ccccc2)C(=O)N[C@@H](CO)C(=O)N[C@@H](CCCCN)C(=O)N1)C(=O)N[C@@H](CCCCN)C(=O)N[C@@H](CC(N)=O)C(=O)N[C@@H](CC(C)C)C(=O)N[C@@]1(C)CCCC=CCCC[C@@](C)(C(=O)N[C@@H](CCCCN)C(=O)NCC(N)=O)NC(=O)CNC(=O)[C@H](CO)NC(=O)[C@H]([C@@H](C)CC)NC1=O [compound 25] (H-K[S5]FSK[S5]KGKKIKNL[S5]ISG[S5]KG-NH2; staple 2-6, 15-19)	109 (≈ 46.2 µM)	49 (≈ 20.8 µM)
CC[C@H](C)[C@H](NC(=O)[C@H](CCCCN)NC(=O)[C@H](CCCCN)NC(=O)CNC(=O)[C@H](CCCCN)NC(=O)[C@]1(C)CCCC=CCCC[C@](C)(NC(=O)CN)C(=O)N[C@@H](CCCCN)C(=O)N[C@@H](CO)C(=O)N[C@@H](CCCCN)C(=O)N1)C(=O)N[C@@H](CCCCN)C(=O)N[C@@H](CC(N)=O)C(=O)N[C@@H](CC(C)C)C(=O)N[C@@]1(C)CCCC=CCCC[C@@](C)(C(=O)N[C@@H](CCCCN)C(=O)N[C@@H](CC(N)=O)C(=O)N[C@@H](CCC(=O)O)C(N)=O)NC(=O)[C@H](Cc2ccccc2)NC(=O)[C@H](CO)NC(=O)[C@H]([C@@H](C)CC)NC1=O [compound 23] (H-G[S5]KSK[S5]KGKKIKNL[S5]ISF[S5]KNE-NH2; staple 2-6, 15-19)	62 (≈ 24.3 µM)	53 (≈ 20.8 µM)
CC[C@H](C)[C@@H]1NC(=O)[C@@](C)(NC(=O)[C@H](CC(C)C)NC(=O)[C@H](CC(N)=O)NC(=O)[C@H](CCCCN)NC(=O)[C@H](CC(C)C)NC(=O)[C@H](CCCCN)NC(=O)[C@H](CCCCN)NC(=O)CNC(=O)[C@H](C)NC(=O)[C@]2(C)CCCC=CCCC[C@](C)(NC(=O)CN)C(=O)N[C@@H](CCCCN)C(=O)N[C@@H](CO)C(=O)N[C@@H](CCCCN)C(=O)N2)CCCC=CCCC[C@@](C)(C(=O)N[C@@H](CCCCN)C(=O)N[C@@H](CC(N)=O)C(N)=O)NC(=O)CNC(=O)[C@H](CO)NC1=O [compound 9] (H-G[S5]KSK[S5]AGKKLKNL[S5]ISG[S5]KN-NH2; staple 2-6, 15-19)	184 (≈ 81 µM)	107 (≈ 47.1 µM)
CC[C@H](C)[C@H](NC(=O)[C@H](CCCCN)NC(=O)[C@H](CCCCN)NC(=O)CNC(=O)[C@H](CCCCN)NC(=O)[C@]1(C)CCCC=CCCC[C@](C)(NC(=O)CN)C(=O)N[C@@H](Cc2ccccc2)C(=O)N[C@@H](CO)C(=O)N[C@@H](CCCCN)C(=O)N1)C(=O)N[C@@H](CCCCN)C(=O)N[C@@H](CC(N)=O)C(=O)N[C@@H](CC(C)C)C(=O)N[C@@]1(C)CCCC=CCCC[C@@](C)(C(=O)N[C@@H](CCCCN)C(=O)NCC(N)=O)NC(=O)[C@H](CCCCN)NC(=O)[C@H](CO)NC(=O)[C@H]([C@@H](C)CC)NC1=O [compound 3] (H-G[S5]FSK[S5]KGKKIKNL[S5]ISK[S5]KG-NH2; staple 2-6, 15-19)	119 (≈ 50.4 µM)	57 (≈ 24.1 µM)
CC[C@H](C)[C@H](NC(=O)[C@H](CCCN)NC(=O)[C@H](CCCN)NC(=O)CNC(=O)[C@H](CCCN)NC(=O)[C@]1(C)CCCC=CCCC[C@](C)(NC(=O)CN)C(=O)N[C@@H](Cc2ccccc2)C(=O)N[C@@H](CO)C(=O)N[C@@H](CCCN)C(=O)N1)C(=O)N[C@@H](CCCN)C(=O)N[C@@H](CC(N)=O)C(=O)N[C@@H](CC(C)C)C(=O)N[C@@]1(C)CCCC=CCCC[C@@](C)(C(=O)N[C@@H](CCCN)C(=O)NCC(N)=O)NC(=O)CNC(=O)[C@H](CO)NC(=O)[C@H]([C@@H](C)CC)NC1=O [compound 15] (H-G[S5]FS[Orn][S5][Orn]G[Orn][Orn]I[Orn]NL[S5]ISG[S5][Orn]G-NH2; staple 2-6, 15-19)	25 (≈ 11.3 µM)	~100 (≈ 45.3 µM)
CC[C@H](C)[C@@H]1NC(=O)[C@@](C)(NC(=O)[C@H](CC(C)C)NC(=O)[C@H](CC(N)=O)NC(=O)[C@H](CCCCN)NC(=O)[C@H](Cc2ccc(C(C)(C)C)cc2)NC(=O)[C@H](CCCCN)NC(=O)[C@H](CCCCN)NC(=O)CNC(=O)[C@H](CCCCN)NC(=O)[C@]2(C)CCCC=CCCC[C@](C)(NC(=O)CN)C(=O)N[C@@H](CCCCN)C(=O)N[C@@H](CO)C(=O)N[C@@H](CCCCN)C(=O)N2)CCCC=CCCC[C@@](C)(C(=O)N[C@@H](CCCCN)C(=O)N[C@@H](CC(N)=O)C(N)=O)NC(=O)CNC(=O)[C@H](CO)NC1=O [compound 18] (H-G[S5]KSK[S5]KGKK[Phe(4-tBu)]KNL[S5]ISG[S5]KN-NH2; staple 2-6, 15-19)	–	21 (≈ 8.68 µM)
